In US8536172B2, “Inhibitors of JNK” (Roche Palo Alto LLC, priority 2009, dated 2013):

Tests used:
[1] = target: Human JNK1α1 (Homo sapiens (Human), UniProt P45983); experiment: JNK assay in vitro: phosphorylation of GST-ATF2 (19-96) with [γ-33P] ATP, JNK1; assay type: biochemical; details: 2 nM enzyme, 1 μM ATF2, 6 μM ATP (Km), 30° C. 30 min
Procedure: JNK activity was measured by phosphorylation of GST-ATF2 (19-96) with [γ-^33P] ATP. […] Human JNK2α2 assay contains 1 nM enzyme, 1 μM ATF2, 8 μM ATP with 1 uCi [γ-^33P] ATP. Human JNK1α1 assay contains 2 nM enzyme, 1 μM ATF2, 6 μM ATP with 1 μCi [γ-^33P] ATP. […] ATP. The enzyme assay was carried out in the presence or absence of several compound concentrations. JNK and compound were pre-incubated for 10 min., followed by initiation of the enzymatic reaction by adding ATP and the substrate. The reaction mixture was incubated at 30° C. for 30 min. […] The incorporation of ^33P into ATF2 was quantified on a microplate scintillation counter (Packard Topcount). Compound inhibition potency on JNK was measured by IC50 value generated from ten concentration inhibition curves fitted into the 3-parameter model: % inhibition=Maximum/(1+(IC50/[Inhibitor])^slope). Data were analyzed on Microsoft Excel for parameter estimation.

[2] = target: Human JNK2α2 (Homo sapiens (Human), UniProt P45984); experiment: JNK assay in vitro: phosphorylation of GST-ATF2 (19-96) with [γ-33P] ATP, JNK2; assay type: biochemical; details: 1 nM enzyme, 1 μM ATF2, 8 μM ATP (Km), 30° C. 30 min
Procedure: JNK activity was measured by phosphorylation of GST-ATF2 (19-96) with [γ-^33P] ATP. […] Human JNK2α2 assay contains 1 nM enzyme, 1 μM ATF2, 8 μM ATP with 1 uCi [γ-^33P] ATP. Human JNK1α1 assay contains 2 nM enzyme, 1 μM ATF2, 6 μM ATP with 1 μCi [γ-^33P] ATP. Human JNK3 (Upstate Biotech #14-501M) assay contains 2 nM enzyme, 1 μM ATF2, 4 μM ATP with 1 μCi [γ-^33P] ATP. The enzyme assay was carried out in the presence or absence of several compound concentrations. JNK and compound were pre-incubated for 10 min., followed by initiation of the enzymatic reaction by adding ATP and the substrate. The reaction mixture was incubated at 30° C. for 30 min. At the end of incubation, the reaction was terminated by transferring 25 μl of the reaction mixture to 150 μl of 10% glutathione Sepharose® slurry (Amersham #27-4574-01) containing 135 mM EDTA. The reaction product was captured on the affinity resin, and washed on a filtration plate (Millipore, MABVNOB50) with phosphate buffered saline for six times to remove free radionucleotide. The incorporation of ^33P into ATF2 was quantified on a microplate scintillation counter (Packard Topcount). Compound inhibition potency on JNK was measured by IC50 value generated from ten concentration inhibition curves fitted into the 3-parameter model: % inhibition=Maximum/(1+(IC50/[Inhibitor])^slope). Data were analyzed on Microsoft Excel for parameter estimation.

Sequence of Human JNK1α1 (P45983 other isoform, or with tags, fused parts or gaps): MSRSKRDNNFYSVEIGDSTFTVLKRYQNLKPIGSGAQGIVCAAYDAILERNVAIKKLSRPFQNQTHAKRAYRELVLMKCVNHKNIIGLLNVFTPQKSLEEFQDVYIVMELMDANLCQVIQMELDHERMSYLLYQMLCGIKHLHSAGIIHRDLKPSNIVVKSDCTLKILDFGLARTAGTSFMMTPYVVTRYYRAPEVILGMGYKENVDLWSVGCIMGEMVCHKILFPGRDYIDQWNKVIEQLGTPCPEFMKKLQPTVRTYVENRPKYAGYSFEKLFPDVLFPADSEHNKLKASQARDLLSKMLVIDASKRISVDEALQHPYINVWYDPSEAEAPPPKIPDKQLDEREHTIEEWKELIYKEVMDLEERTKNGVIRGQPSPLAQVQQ
Sequence of Human JNK2α2 (P45984 whole entry): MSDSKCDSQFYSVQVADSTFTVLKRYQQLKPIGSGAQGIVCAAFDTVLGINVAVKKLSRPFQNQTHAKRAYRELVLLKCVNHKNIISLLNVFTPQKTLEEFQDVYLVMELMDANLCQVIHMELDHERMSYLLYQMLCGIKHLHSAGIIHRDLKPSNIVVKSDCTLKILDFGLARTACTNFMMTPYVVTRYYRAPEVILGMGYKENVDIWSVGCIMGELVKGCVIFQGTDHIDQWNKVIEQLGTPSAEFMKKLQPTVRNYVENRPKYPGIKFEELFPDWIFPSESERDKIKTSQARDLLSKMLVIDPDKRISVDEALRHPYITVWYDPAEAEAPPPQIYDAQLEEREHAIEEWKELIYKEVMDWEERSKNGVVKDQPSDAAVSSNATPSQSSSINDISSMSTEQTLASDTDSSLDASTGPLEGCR

CS(=O)(=O)C1CCN(c2cccc3c2ccn3-c2ccnc(N[C@H]3CC[C@H](C(=O)N4CCn5c(nnc5C(F)(F)F)C4)CC3)n2)CC1 [Compound I-51, (4-{4-[4-(4-Methanesulfonyl-piperidin-1-yl)-indol-1-yl]-pyrimidin-2-ylamino}-cyclohexyl)-(3-trifluoromethyl-5,6-dihydro-8H-[1,2,4]triazolo[4,3-a]pyrazin-7-yl)-methanone]
IC50 [1]: 3.6 nM | IC50 [2]: 6.2 nM

N#CCC(=O)N1CCN(c2cccc3c2ccn3-c2ccnc(N[C@H]3CC[C@H](O)CC3)n2)CC1 [Compound I-55, 3-(4-{1-[2-(4-Hydroxy-cyclohexylamino)-pyrimidin-4-yl]-1H-indol-4-yl}-piperazin-1-yl)-3-oxo-propionitrile]
IC50 [1]: 4.4 nM | IC50 [2]: 23.1 nM

CCN1CCN(C(=O)[C@H]2CC[C@H](Nc3nccc(-n4ccc5c(N6CCN(C(=O)CC#N)CC6)cccc54)n3)CC2)CC1 [Compound I-56, 3-[4-(1-{2-[4-(4-Ethyl-piperazine-1-carbonyl)-cyclohexylamino]-pyrimidin-4-yl}-1H-indol-4-yl)-piperazin-1-yl]-3-oxo-propionitrile]
IC50 [1]: 9.2 nM | IC50 [2]: 18.7 nM

N#CCC(=O)N1CCN(c2cccc3c2ccn3-c2ccnc(N[C@H]3CC[C@@H](O)CC3)n2)CC1 [Compound I-57, 3-(4-{1-[2-(4-Hydroxy-cyclohexylamino)-pyrimidin-4-yl]-1H-indol-4-yl}-piperazin-1-yl)-3-oxo-propionitrile]
IC50 [1]: 15.9 nM | IC50 [2]: 88.4 nM

CC(=O)N1CCN(c2cccc3c2c(C(N)=O)cn3-c2ccnc(N[C@H]3CC[C@H](O)CC3)n2)CC1 [Compound I-63, 4-(4-Acetyl-piperazin-1-yl)-1-[2-(4-hydroxy-cyclohexylamino)-pyrimidin-4-yl]-1H-indole-3-carboxylic acid amide]
IC50 [1]: 12.4 nM | IC50 [2]: 25.7 nM

CS(=O)(=O)C1CCN(c2cccc3c2cnn3-c2ccnc(N[C@H]3CC[C@H](O)CC3)n2)CC1 [Compound I-66, 4-{4-[4-(4-Methanesulfonyl-piperidin-1-yl)-indazol-1-yl]-pyrimidin-2-ylamino}-cyclohexanol]
IC50 [1]: 5.8 nM | IC50 [2]: 16.7 nM
